Measured values reported in US20190247398A1, “FORMULATIONS OF A MACROCYCLIC TRK KINASE INHIBITOR” (Array BioPharma Inc., priority 2017, published 2019).
Where two headings read alike, the source gives them in different places.

Key:
[1] = acid counterion; cited from earlier work
[2] = Salt stability studies (40° C./75% RH for 1 week, XRPD); type: physicochemical
Method: Recovered salts were placed in an oven at 40° C./75% RH for 1 week, and the resultant materials were analyzed by XRPD to determine any changes to form or crystallinity.

[3] = Salt disproportionation studies; type: physicochemical; settings: deionized water, 24 h, ambient temperature
Method: Salt disproportionation studies were carried out as follows: 20 mg of prepared salts were weighed into a vial and 0.5 mL of deionized water was added. The samples were then agitated for 24 h at ambient temperature. The pH of the samples was taken pre- and post-agitation. Any solids recovered were submitted for XRPD analysis to determine any changes to form.

[4] = 1 week stability tests (40° C./75% RH, 80° C., ambient light; XRPD and UPLC); type: physicochemical
[5] = Hydration screen (acetone/water mixtures of various water activities); type: physicochemical; settings: ambient
Method: Hydration screen was carried out as follows: 10 mg of prepared salts were suspended in several acetone/water mixtures of various water activities (low: aw=0.281, medium: aw=0.776 and high: aw=0.919) and agitated at ambient temperatures for 24 hr. Any recovered solids were submitted for XRPD analysis to determine any changes to form.

Thermodynamic solubility = type: physicochemical; settings: for solubility thermodynamic at 24 h: thermodynamic from solid, ambient temperature, read-out: Concentration (thermodynamic solubility)
Method: Thermodynamic solubility studies were carried out as follows: 10 mg of prepared salts were suspended in pH 1, 4.5, 6.8 and un-buffered water (300 μL). The pH of the slurries was measured and adjusted accordingly using either 0.2M HCl solution or 0.2M sodium hydroxide solution. The slurries were agitated for 24 hours at ambient temperature using an incubator shaker.

[6] = Dynamic vapor sorption (DVS); type: physicochemical
Method: Approximately, 10 mg of sample was placed into a mesh vapor sorption balance pan and loaded into a DVS-1 dynamic vapor sorption balance by Surface Measurement Systems. The sample was subjected to a ramping profile from 40-90% relative humidity (RH) at 10% increments, maintaining the sample at each step until a stable weight had been achieved (99.5% step completion). After completion of the sorption cycle, the sample was dried using the same procedure to 0% RH and then a second sorption cycle back to 40% RH. The weight change during the sorption/desorption cycles were plotted, allowing for the hygroscopic nature of the sample to be determined. XRPD analysis was then carried out on any solid retained.

[7] = Solvent solubility of Compound 1 free base (stepwise solvent addition to amorphous material); type: physicochemical; settings: 40 °C, thermodynamic from solid, read-out: Approx. Solubility
Method: A solid Compound 1 was obtained as follows. A […] of solution containing about 330 mg of Compound 1 in warm 1,4-dioxane was divided between 33, 2 mL glass vials (1.5 mL in each). The solutions were frozen and freeze-dried by lyophilization overnight. The resulting material was then analyzed by XRPD to confirm mostly amorphous material.
Approximately 10 mg of amorphous Compound 1 was produced in 32×2 mL glass vials from freeze drying and 100 μL of the appropriate solvent system was added to the appropriate vial. Between each addition, the mixture was checked for dissolution and if no dissolution was apparent, the mixture was heated to about 40° C. and checked again. This procedure was continued until dissolution was observed or until 2 mL had been added (to the compound concentration of <5 mg/mL).

In the case of `O=S(=O)(O)CCO` [2-Hydroxy ethanesulfonic acid], the “pKa 1” value [1] is listed as 1.66.
In the case of `C[C@@H]1CCc2ncc(F)cc2[C@H]2CCCN2c2ccn3ncc(c3n2)C(=O)N1.O=C(O)C[C@H](O)C(=O)O` [Compound 1 L-malate], the “changes to form or crystallinity after stability conditions (XRPD)” value (shortened to “changes to form or crystallinity”) ([2]; salt recovered from TBME) is reported as “no change to crystallinity and form”.
In the case of `C[C@@H]1CCc2ncc(F)cc2[C@H]2CCCN2c2ccn3ncc(c3n2)C(=O)N1.O=S(=O)(O)c1ccccc1` [Compound 1 besylate], the “material recovered after salt disproportionation study (XRPD)” value [3] is reported as “poorly crystalline free base”, the “changes to form or crystallinity” value ([2]; salt recovered from TBME) is reported as “preferred orientation but no changes to form” and the “changes to form or crystallinity” value ([2]; salt recovered from THF) is reported as “an increase to crystallinity but no changes to form”. The “changes to form or crystallinity” value ([2]; salt recovered from ethanol) was “a decrease in crystallinity”, the “change to form after 1 week stability test (XRPD)” value (“change to form” for short) ([4]; 40° C./75% RH) was “a mixture of besylate salt and something else” and the “change in purity after 1 week stability test (UPLC)” value (“change in purity” for short) ([4]; 80° C.) was “no change to purity”. For the same compound, the “change to form” value ([4]; 80° C.) was “no change to form”, the “change in purity” value ([4]; ambient light) was “no change to purity” and the “change to form” value ([4]; ambient light) was “no change to form”. The “solid recovered from hydration screen (XRPD)” value ([5]; high water activity aw=0.919, 24 hr) was “poorly crystalline besylate salt”, the “solid recovered from hydration screen (XRPD)” value ([5]; low water activity aw=0.281, 24 hr) was “poorly crystalline besylate salt” and the solubility thermodynamic at 24 h (Thermodynamic solubility; aqueous buffer, pH 4.5 buffer) was 12700 µg/mL. For the same compound, the “thermodynamic solubility (in words)” value (Thermodynamic solubility; pH 1) was “highly soluble”, the “solids recovered after thermodynamic solubility study (XRPD)” value (shortened to “solids recovered”) (Thermodynamic solubility; pH 4.5) was “an unknown form” and the “thermodynamic solubility (in words)” value (Thermodynamic solubility; pH 4.5) was “moderately soluble”. The “solids recovered” value (Thermodynamic solubility; pH 6.8) was “poorly crystalline free base”, the “thermodynamic solubility (in words)” value (Thermodynamic solubility; pH 6.8) was “low solubility” and the solubility thermodynamic at 24 h (Thermodynamic solubility; pH 6.8 potassium phosphate buffer, aqueous buffer, pH 6.8 buffer) was 1900 µg/mL. For the same compound, the solubility thermodynamic at 24 h (Thermodynamic solubility; simulated gastric fluid, pH 1 buffer) was 30800 µg/mL, the solubility thermodynamic at 24 h (Thermodynamic solubility; un-buffered water) was 17900 µg/mL and the “solids recovered” value (Thermodynamic solubility; un-buffered water) was “poorly crystalline free base”. For the same compound, the “thermodynamic solubility (in words)” value (Thermodynamic solubility; un-buffered water) was “moderately soluble”, the “hygroscopicity by DVS (in words)” value ([6]; DVS humidity conditions) was “low hygroscopicity” and the “change in crystalline form after exposure to DVS conditions (post-DVS XRPD)” value ([6]; after DVS cycle) was “no changes in crystalline form”. The “mass uptake (DVS)” value ([6]; at 90% RH) was “about 0.7%”.
For `C[C@@H]1CCc2ncc(F)cc2[C@H]2CCCN2c2ccn3ncc(c3n2)C(=O)N1` [Compound 1 edisylate], the “changes to form or crystallinity” value ([2]; salt recovered from isopropanol) was “become amorphous”.
With `C[C@@H]1CCc2ncc(F)cc2[C@H]2CCCN2c2ccn3ncc(c3n2)C(=O)N1.O=C(O)/C=C/C(=O)O` [Compound 1 fumarate] the “changes to form or crystallinity” value ([2]; salt recovered from acetone) was “a slight decrease to crystallinity however, no change to form”.
For `C[C@@H]1CCc2ncc(F)cc2[C@H]2CCCN2c2ccn3ncc(c3n2)C(=O)N1.O=C(O)C(=O)O` [Compound 1 oxalate], the “changes to form or crystallinity” value ([2]; salt recovered from ethanol) was “a change in crystallinity and form” and the “changes to form or crystallinity” value ([2]; salt recovered from methanol) was “no change to crystallinity however, changes to form were seen”.
With `C[C@@H]1CCc2ncc(F)cc2[C@H]2CCCN2c2ccn3ncc(c3n2)C(=O)N1.O=C(O)CCC(=O)O` [Compound 1 succinate] the “changes to form or crystallinity” value ([2]; salt recovered from acetone) was “a decrease in crystallinity but no change to form”.
For `C[C@@H]1CCc2ncc(F)cc2[C@H]2CCCN2c2ccn3ncc(c3n2)C(=O)N1.Cc1ccc(S(=O)(=O)O)cc1` [Compound 1 tosylate], the “changes to form or crystallinity” value ([2]; salt recovered from acetone) was “become amorphous”.
With `C[C@@H]1CCc2ncc(F)cc2[C@H]2CCCN2c2ccn3ncc(c3n2)C(=O)N1` [Compound 1, (6R,15R)-9-fluoro-15-methyl-2,11,16,20,21,24-hexaazapentacyclo[16.5.2.0^2,6.0^7,12.0^21,25]pentacosa-1 (24),7,9,11,18(25), 19,22-heptaen-17-one] the solubility ([7]; organic solvent or mixture, in 1-Propanol) was over 100000 µg/mL, the solubility ([7]; organic solvent or mixture, in 2-Methyl THF) was under 5000 µg/mL and the solubility ([7]; organic solvent or mixture, in Cyclohexane) was under 5000 µg/mL. It also gave a solubility ([7]; organic solvent or mixture, in Cyclopentylmethyl ether) of under 5000 µg/mL, a solubility ([7]; organic solvent or mixture, in Dichloromethane) of over 100000 µg/mL and a solubility ([7]; organic solvent or mixture, in Diisopropyl ether) of under 5000 µg/mL. For the same compound, the solubility ([7]; organic solvent or mixture, in Dimethylformamide) was over 100000 µg/mL, the solubility ([7]; organic solvent or mixture, in Ethyl acetate) was under 5000 µg/mL and the solubility ([7]; organic solvent or mixture, in Heptane) was under 5000 µg/mL. It also gave a solubility ([7]; organic solvent or mixture, in Isobutyl acetate) of under 5000 µg/mL, a solubility ([7]; organic solvent or mixture, in Isopropyl acetate) of under 5000 µg/mL and a solubility ([7]; organic solvent or mixture, in N,N-Dimethylacetamide) of over 100000 µg/mL. It also gave a solubility ([7]; organic solvent or mixture, in N-Methylpyrrolidone) of over 100000 µg/mL, a solubility ([7]; organic solvent or mixture, in TBME:Heptane (60:40 v/v)) of under 5000 µg/mL and a solubility ([7]; organic solvent or mixture, in TBME) of under 5000 µg/mL. For the same compound, the solubility ([7]; organic solvent or mixture, in Toluene) was under 5000 µg/mL, the solubility ([7]; in Water) was under 5000 µg/mL and the “change in purity” value ([4]; 40° C./75% RH) was “no change in purity”. For the same compound, the “change to form” value ([4]; 40° C./75% RH) was “no change to form”, the “average purity after 1 week stability test (UPLC)” value (from here on “average purity”) ([4]; 40° C./75% RH (relative humidity test)) was 99.2% and the “average purity” value ([4]; 80° C.) was 99.3%. For the same compound, the “change in purity” value ([4]; 80° C.) was “no change in purity”, the “change to form” value ([4]; 80° C.) was “no change to form” and the “average purity” value ([4]; ambient light) was 99.2%. The “change in purity” value ([4]; ambient light) was “no change in purity” and the “change to form” value ([4]; ambient light) was “no change to form”.
For `O=C(O)[C@H](O)[C@@H](O)[C@H](O)[C@H](O)CO` [D-Gluconic acid (50% in water), D-Gluconic acid], the “pKa 1” value [1] is given as 3.76.
In the case of `O=C[C@H](O)[C@@H](O)[C@H](O)[C@H](O)C(=O)O` [D-Glucuronic acid], the “pKa 1” value [1] is listed as 3.18.
In the case of `CCS(=O)(=O)O` [Ethane sulfonic acid], the “pKa 1” value [1] is given as −2.05.
For `O=C(O)CNC(=O)c1ccccc1` [Hippuric acid], the “pKa 1” value [1] is given as 3.55.
